“And” between values parts separate entries of the source, which are not always exact repeats. Equal values may be shown once. Read-outs that look alike come from different tables or passages of the source.
Assays:
Type in all cases: cell-based
Klebsiella pneumoniae = test: microbe, parasite or virus in culture; conditions: for MIC: Klebsiella pneumoniae
From the text: (§1) (i) Panels of engineered bacterial strains containing various combinations of porin and efflux mutations were used. The construction of all the strains used in the study is described in detail in references, [44], and [45]. (ii) KPC-producing clinical isolates and their derivatives that lost KPC plasmids were used also. These strains and their origins are described in the Table S2. (iii) Finally, KPC-producing clinical isolates enriched in strains with porin mutations were used. The mutations identified include various deletions, insertions, nonsense mutations, and decreased expression. Most of the isolates were obtained from JMI Laboratories or International Health Management Associates (IHMA); they were collected in the course of global surveillance studies.
(§2) Bacterial isolates were subjected to broth microdilution susceptibility testing, performed according to Clinical and Laboratory Standards Institute (CLSI) methods ([46]), using panels prepared in-house. […] Xeruborbactam was synthesized at Qpex Biopharma, San Diego, CA. Avibactam was purchased from eNovation Chemicals LLC, Bridgewater, NJ, USA; zidebactam was from MedKoo Biosciences, Inc., Morrisville, NC, and nacubactam was from Advanced ChemBlocks, Hayward, CA. Durlobactam was synthesized at Acme Bioscience, Palo Alto, CA, USA.

Pseudomonas aeruginosa = test: Broth microdilution MIC (CLSI), Pseudomonas aeruginosa
From the text: as §1, §2

Acinetobacter baumannii = test: Broth microdilution MIC (CLSI), Acinetobacter baumannii; conditions: Acinetobacter baumannii, read-out: MIC
From the text: as §1, §2

[1] = PAM1154 (oprM::Hg), xeruborbactam 0 µg/ml

CC(C)(O/N=C(\C(=O)N[C@@H]1C(=O)N2C(C(=O)[O-])=C(C[n+]3ccccc3)CS[C@H]12)c1csc(N)n1)C(=O)O [Ceftazidime]
MIC (Klebsiella pneumoniae; BAA2814): 512 µg/mL | MIC (Pseudomonas aeruginosa; [1]): 1 µg/mL | MIC (Pseudomonas aeruginosa; PAM1154, xeruborbactam 2 µg/ml): 0.25 µg/mL | MIC (Pseudomonas aeruginosa; PAM1154, xeruborbactam 4 µg/ml): 0.25 µg/mL | MIC (Pseudomonas aeruginosa; PAM1154, xeruborbactam 8 µg/ml): 0.25 µg/mL

Nc1nc(/C(=C/CC(=O)O)C(=O)N[C@@H]2C(=O)N3C(C(=O)O)=CCS[C@H]23)cs1 [Ceftibuten]
fold decrease compared to MIC of antibiotic alone (Klebsiella pneumoniae): 0.015 (4) fold and 0.008 (8) fold | fold decrease compared to MIC of antibiotic alone (Klebsiella pneumoniae; KPM3532 (TolQ::M189K), with xeruborbactam at 4 μg/mL): 2 fold | fold decrease compared to MIC of antibiotic alone (Klebsiella pneumoniae; KPM3532 (TolQ::M189K), with xeruborbactam at 8 μg/mL): 2 fold | fold decrease compared to MIC of antibiotic alone (Klebsiella pneumoniae; KPM3534 (TolQ::S31F), with xeruborbactam at 4 μg/mL): 2 fold | fold decrease compared to MIC of antibiotic alone (Klebsiella pneumoniae; KPM3534 (TolQ::S31F), with xeruborbactam at 8 μg/mL): 4 fold | MIC (Klebsiella pneumoniae): 0.06 µg/mL | MIC (Klebsiella pneumoniae; KPM3532 (TolQ::M189K), alone): 0.125 µg/mL | MIC (Klebsiella pneumoniae; KPM3534 (TolQ::S31F), alone): 0.125 µg/mL

C[C@@H](O)[C@H]1C(=O)N2C(C(=O)O)=C(SCCN=CN)C[C@H]12 [Imipenem]
MIC (Acinetobacter baumannii; AB1007 (no beta-lactamase), xeruborbactam 0 µg/ml): 0.125 µg/mL | MIC (Acinetobacter baumannii; AB1007, xeruborbactam 2 µg/ml): 0.125 µg/mL | MIC (Acinetobacter baumannii; AB1007, xeruborbactam 4 µg/ml): 0.03 µg/mL | MIC (Acinetobacter baumannii; AB1007, xeruborbactam 8 µg/ml): 0.015 µg/mL | MIC (Pseudomonas aeruginosa; [1]): 1 µg/mL | MIC (Pseudomonas aeruginosa; PAM1154, xeruborbactam 2 µg/ml): 0.5 µg/mL | MIC (Pseudomonas aeruginosa; PAM1154, xeruborbactam 4 µg/ml): 0.25 µg/mL | MIC (Pseudomonas aeruginosa; PAM1154, xeruborbactam 8 µg/ml): 0.125 µg/mL

— publication PMC9578396, “Intrinsic Antibacterial Activity of Xeruborbactam In Vitro: Assessing Spectrum and Mode of Action” (Antimicrobial Agents and Chemotherapy, 2022)
